What all share (assay): Bliss interaction score (quartile over a dose matrix) (fitness difference); higher = more antagonism (negative = synergy)
One assay has as its system B. subtilis 168. The essentials:
(§1)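 Each plate was normalised to the robust mean of its own no-drug wells, using OD595 at entry into stationary phase, with values capped at 1. This normalised growth is the fitness value. The Bliss score is the difference between observed and product-expected fitness, with single-drug fitness inferred from the combination data and quartiles taken over technical, biological and donor/recipient replicates.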

The next assay concerns S. aureus DSM 20231. Put shortly:
as §1

In another assay the test system is S. pneumoniae D39V. The essentials: as §1
A further assay relates to S. aureus Newman. Put shortly:
as §1

The structures appear in SMILES notation.
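Note: first quartile when negative (synergy) and third quartile when positive (antagonism).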

Turning to `CN(C)[C@@H]1C(O)=C(C(N)=O)C(=O)[C@@]2(O)C(O)=C3C(=O)c4c(O)ccc(Cl)c4[C@@](C)(O)[C@H]3C[C@@H]12` [Clortetracycline] + Clc1ccc(COC(Cn2ccnc2)c2ccc(Cl)cc2Cl)c(Cl)c1 [Miconazole], the Bliss interaction score in the assay with B. subtilis 168 was 0.0788; in the assay with S. aureus DSM 20231 it was 0.0511; in the assay on S. pneumoniae D39V it was 0.0793; in the assay on S. aureus Newman, 0.0716.

Take `CN(C)[C@@H]1C(O)=C(C(N)=O)C(=O)[C@@]2(O)C(O)=C3C(=O)c4c(O)ccc(Cl)c4[C@@](C)(O)[C@H]3C[C@@H]12` [Clortetracycline] + Cn1nnc(-c2ccc(-c3ccc(N4C[C@H](CO)OC4=O)cc3F)cn2)n1 [Tedizolid]: the Bliss interaction score was -0.105 in the assay with B. subtilis 168, -0.0502 in the assay on S. aureus DSM 20231, 0.0607 with S. pneumoniae D39V and -0.0562 in the assay on S. aureus Newman.

For `CN(C)[C@@H]1C(O)=C(C(N)=O)C(=O)[C@@]2(O)C(O)=C3C(=O)c4c(O)ccc(Cl)c4[C@@](C)(O)[C@H]3C[C@@H]12` [Clortetracycline] + N[C@@H]1CONC1=O [CycloserineD], the Bliss interaction score in the assay with B. subtilis 168 is 0.0921; in the assay on S. aureus DSM 20231, -0.118; with S. pneumoniae D39V it was 0.199; in the assay on S. aureus Newman, 0.0727.

`CN(C)[C@@H]1C(O)=C(C(N)=O)C(=O)[C@@]2(O)C(O)=C3C(=O)c4c(O)ccc(Cl)c4[C@@](C)(O)[C@H]3C[C@@H]12` [Clortetracycline] + O=C1CN(/N=C/c2ccc([N+](=O)[O-])o2)C(=O)N1 [Nitrofurantoin]: the Bliss interaction score with B. subtilis 168 is -0.158; in the assay on S. aureus DSM 20231, 0.016; with S. pneumoniae D39V it was -0.0355; in the assay with S. aureus Newman, -0.0647.

For `CN(C)[C@@H]1C(O)=C(C(N)=O)C(=O)[C@@]2(O)C(O)=C3C(=O)c4c(O)ccc(Cl)c4[C@@](C)(O)[C@H]3C[C@@H]12` [Clortetracycline] + O=C(O[C@@H]1Cc2c(O)cc(O)cc2O[C@@H]1c1cc(O)c(O)c(O)c1)c1cc(O)c(O)c(O)c1 [EGCG], the Bliss interaction score was -0.096 in the assay on B. subtilis 168, 0.114 in the assay with S. aureus DSM 20231, -0.0892 in the assay on S. pneumoniae D39V and -0.0462 in the assay with S. aureus Newman.

Regarding `CN(C)[C@@H]1C(O)=C(C(N)=O)C(=O)[C@@]2(O)C(O)=C3C(=O)c4c(O)ccc(Cl)c4[C@@](C)(O)[C@H]3C[C@@H]12` [Clortetracycline] + Oc1cc(Cl)ccc1Oc1ccc(Cl)cc1Cl [Triclosan], the Bliss interaction score in the assay with B. subtilis 168 is 0.0578; in the assay on S. aureus DSM 20231, -0.0936; with S. pneumoniae D39V, 0.117; in the assay with S. aureus Newman, 0.021.

Turning to `COc1cccc2c1C(=O)c1c(O)c3c(c(O)c1C2=O)C[C@@](O)(C(=O)CO)C[C@@H]3O[C@H]1C[C@H](N)[C@H](O)[C@H](C)O1` [Doxorubicin] + CC1(C)S[C@@H]2[C@H](NC(=O)Cc3ccccc3)C(=O)N2[C@H]1C(=O)O [PenicillinG], the Bliss interaction score was 0.0777 in the assay on B. subtilis 168, 0.0914 in the assay with S. aureus DSM 20231, 0.0966 in the assay on S. pneumoniae D39V and -0.0818 in the assay on S. aureus Newman.

Take `COc1cccc2c1C(=O)c1c(O)c3c(c(O)c1C2=O)C[C@@](O)(C(=O)CO)C[C@@H]3O[C@H]1C[C@H](N)[C@H](O)[C@H](C)O1` [Doxorubicin] + CC(=O)O[C@H]1C[C@@]2(C)[C@@H](C[C@@H](O)[C@H]3[C@@]4(C)CC[C@@H](O)[C@@H](C)[C@@H]4CC[C@@]32C)/C1=C(\CCC=C(C)C)C(=O)O [Fusidic acid]: the Bliss interaction score was 0.0613 in the assay with B. subtilis 168, -0.0285 in the assay with S. aureus DSM 20231, -0.0805 in the assay on S. pneumoniae D39V and 0.0367 in the assay with S. aureus Newman.

Turning to `COc1cccc2c1C(=O)c1c(O)c3c(c(O)c1C2=O)C[C@@](O)(C(=O)CO)C[C@@H]3O[C@H]1C[C@H](N)[C@H](O)[C@H](C)O1` [Doxorubicin] + CC[C@H]1OC(=O)[C@H](C)C(=O)[C@H](C)[C@@H](O[C@@H]2O[C@H](C)C[C@H](N(C)C)[C@H]2O)[C@](C)(OC)C[C@@H](C)C(=O)[C@H](C)[C@H]2N(CCCCn3cnc(-c4cccnc4)c3)C(=O)O[C@]12C [Telithromycin], the Bliss interaction score in the assay on B. subtilis 168 was 0.0872; with S. aureus DSM 20231, -0.0292; in the assay on S. pneumoniae D39V, -0.0361; with S. aureus Newman it was 0.0489.

In the case of `COc1cccc2c1C(=O)c1c(O)c3c(c(O)c1C2=O)C[C@@](O)(C(=O)CO)C[C@@H]3O[C@H]1C[C@H](N)[C@H](O)[C@H](C)O1` [Doxorubicin] + CC[C@H]1OC(=O)[C@H](C)[C@@H](O[C@H]2C[C@@](C)(OC)[C@@H](O)[C@H](C)O2)[C@H](C)[C@@H](O[C@@H]2O[C@H](C)C[C@H](N(C)C)[C@H]2O)[C@](C)(O)C[C@@H](C)C(=O)[C@H](C)[C@@H](O)[C@]1(C)O [Erythromycin], the Bliss interaction score with B. subtilis 168 is 0.0769; in the assay on S. aureus DSM 20231 it was 0.0463; with S. pneumoniae D39V, 0.0705; in the assay on S. aureus Newman it was 0.0828.

With `COc1cccc2c1C(=O)c1c(O)c3c(c(O)c1C2=O)C[C@@](O)(C(=O)CO)C[C@@H]3O[C@H]1C[C@H](N)[C@H](O)[C@H](C)O1` [Doxorubicin] + CN[C@H](CC(C)C)C(=O)N[C@H]1C(=O)N[C@@H](CC(N)=O)C(=O)N[C@H]2C(=O)N[C@H]3C(=O)N[C@H](C(=O)N[C@H](C(=O)O)c4cc(O)cc(O)c4-c4cc3ccc4O)[C@H](O[C@H]3C[C@](C)(N)[C@@H](O)[C@H](C)O3)c3ccc(c(Cl)c3)Oc3cc2cc(c3O[C@@H]2O[C@H](CO)[C@@H](O)[C@H](O)[C@H]2O[C@H]2C[C@](C)(NCc3ccc(-c4ccc(Cl)cc4)cc3)[C@@H](O)[C@H](C)O2)Oc2ccc(cc2Cl)[C@H]1O [Oritavancin], the Bliss interaction score in the assay with B. subtilis 168 is -0.0288; in the assay on S. aureus DSM 20231, 0.0678; in the assay on S. pneumoniae D39V it was 0.0571; with S. aureus Newman, 0.114.

As for `COc1cccc2c1C(=O)c1c(O)c3c(c(O)c1C2=O)C[C@@](O)(C(=O)CO)C[C@@H]3O[C@H]1C[C@H](N)[C@H](O)[C@H](C)O1` [Doxorubicin] + CO[C@@]12[C@H](COC(N)=O)C3=C(C(=O)C(C)=C(N)C3=O)N1C[C@@H]1N[C@@H]12 [MitomycinC], the Bliss interaction score in the assay with B. subtilis 168 was -0.269; with S. aureus DSM 20231, -0.0314; in the assay with S. pneumoniae D39V it was -0.0709; with S. aureus Newman, 0.122.

For `COc1cccc2c1C(=O)c1c(O)c3c(c(O)c1C2=O)C[C@@](O)(C(=O)CO)C[C@@H]3O[C@H]1C[C@H](N)[C@H](O)[C@H](C)O1` [Doxorubicin] + C[C@H]1c2cccc(O)c2C(=O)C2=C(O)[C@]3(O)C(=O)C(C(N)=O)=C(O)[C@@H](N(C)C)[C@@H]3[C@@H](O)[C@@H]21 [Doxycycline], the Bliss interaction score was 0.0384 with B. subtilis 168, 0.0574 in the assay with S. aureus DSM 20231, -0.144 in the assay on S. pneumoniae D39V and -0.0163 in the assay on S. aureus Newman.

As for `COc1cccc2c1C(=O)c1c(O)c3c(c(O)c1C2=O)C[C@@](O)(C(=O)CO)C[C@@H]3O[C@H]1C[C@H](N)[C@H](O)[C@H](C)O1` [Doxorubicin] + Oc1cc(Cl)ccc1Oc1ccc(Cl)cc1Cl [Triclosan], the Bliss interaction score in the assay on B. subtilis 168 was -0.0317; in the assay on S. aureus DSM 20231, -0.0295; with S. pneumoniae D39V it was -0.0416; with S. aureus Newman, -0.0426.

With `C[C@H]1c2cccc(O)c2C(=O)C2=C(O)[C@]3(O)C(=O)C(C(N)=O)=C(O)[C@@H](N(C)C)[C@@H]3[C@@H](O)[C@@H]21` [Doxycycline] + CC1(C)S[C@@H]2[C@H](NC(=O)Cc3ccccc3)C(=O)N2[C@H]1C(=O)O [PenicillinG], the Bliss interaction score in the assay with B. subtilis 168 was 0.108; with S. aureus DSM 20231, 0.0444; in the assay with S. pneumoniae D39V it was 0.106; with S. aureus Newman it was -0.027.

The values above are taken from the supplement of paper PMC10627819.
